# Measurements: ChEMBL document CHEMBL1201861, “Genomics of Drug Sensitity in Cancer screening data, Wellcome Trust Sanger Institute”
# Tested on: NCI-H810;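 note: IC50 reflects inhibition of cancer cell line growth, read out with a cell viability assay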
# Experiment: cells
# Type: functional, cell-based
# Conditions: Homo sapiens
# Description: SANGER: Inhibition of human NCI-H810 cell growth in a cell viability assay.
row,SMILES,IC50 [µM]
1,CCCCCCCCCCCC1=C(O)C(=O)C=C(O)C1=O [EMBELIN],7.73

# Tested on: MEL-HO
# Experiment: cells
# Type: functional, cell-based
# Conditions: Homo sapiens
# Description: SANGER: Inhibition of human MEL-HO cell growth in a cell viability assay.
row,SMILES,IC50 [µM]
1,CCCCCCCCCCCC1=C(O)C(=O)C=C(O)C1=O [EMBELIN],5.11

# Tested on: T-24;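 note: growth inhibition of T-24 cells, read out with a cell viability assay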
# Experiment: cells
# Type: functional, cell-based
# Conditions: Homo sapiens
# Description: SANGER: Inhibition of human T-24 cell growth in a cell viability assay.
row,SMILES,IC50 [µM]
1,CCCCCCCCCCCC1=C(O)C(=O)C=C(O)C1=O [EMBELIN],> 32

# Tested on: CAL-148
# Experiment: cells
# Type: functional, cell-based, Homo sapiens
# Conditions: Homo sapiens, CAL-148
# Description: SANGER: Inhibition of human CAL-148 cell growth in a cell viability assay.
row,SMILES,IC50 [µM]
1,CCCCCCCCCCCC1=C(O)C(=O)C=C(O)C1=O [EMBELIN],> 32

# Tested on: ARH-77;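 note: growth inhibition of ARH-77 cells, read out by a cell viability assay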
# Experiment: cells
# Type: functional, cell-based, Homo sapiens
# Conditions: Homo sapiens, ARH-77
# Description: SANGER: Inhibition of human ARH-77 cell growth in a cell viability assay.
row,SMILES,IC50 [µM]
1,CCCCCCCCCCCC1=C(O)C(=O)C=C(O)C1=O [EMBELIN],16.4

# Tested on: UO-31
# Experiment: cells
# Type: functional, cell-based
# Conditions: Homo sapiens
# Description: SANGER: Inhibition of human U031 cell growth in a cell viability assay.
row,SMILES,IC50 [µM]
1,CCCCCCCCCCCC1=C(O)C(=O)C=C(O)C1=O [EMBELIN],19.1

# Tested on: SNU-16;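 note: growth inhibition of human SNU-16 cells, determined with a cell viability readout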
# Experiment: cells
# Type: functional, cell-based, Homo sapiens
# Conditions: Homo sapiens, SNU-16
# Description: SANGER: Inhibition of human NCI-SNU-16 cell growth in a cell viability assay.
row,SMILES,IC50 [µM]
1,CCCCCCCCCCCC1=C(O)C(=O)C=C(O)C1=O [EMBELIN],> 32

# Tested on: IM-9
# Experiment: SANGER: Inhibition of human IM-9 cell growth in a cell viability assay.
# Type: functional, cell-based
# Conditions: Homo sapiens, IM-9
row,SMILES,IC50 [µM]
1,CCCCCCCCCCCC1=C(O)C(=O)C=C(O)C1=O [EMBELIN],> 32

# Tested on: HTC-C3;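 note: inhibition of cell growth, read out with a cell viability assay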
# Experiment: cells
# Type: functional, cell-based
# Conditions: Homo sapiens
# Description: SANGER: Inhibition of human HTC-C3 cell growth in a cell viability assay.
row,SMILES,IC50 [µM]
1,CCCCCCCCCCCC1=C(O)C(=O)C=C(O)C1=O [EMBELIN],12.8

# Tested on: NY
# Experiment: cells
# Type: functional, cell-based
# Conditions: Homo sapiens
# Description: SANGER: Inhibition of human NY cell growth in a cell viability assay.
row,SMILES,IC50 [µM]
1,CCCCCCCCCCCC1=C(O)C(=O)C=C(O)C1=O [EMBELIN],4.8

# Tested on: MKN-1;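 note: growth inhibition of human MKN1 cells, read out by a cell viability measurement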
# Experiment: cells
# Type: functional, cell-based
# Conditions: Homo sapiens
# Description: SANGER: Inhibition of human MKN1 cell growth in a cell viability assay.
row,SMILES,IC50 [µM]
1,CCCCCCCCCCCC1=C(O)C(=O)C=C(O)C1=O [EMBELIN],12.3

# Tested on: NCI-H510A;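 note: growth inhibition of NCI-H510A cells, read out with a cell viability assay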
# Experiment: cells
# Type: functional, cell-based, Homo sapiens
# Conditions: Homo sapiens, NCI-H510A
# Description: SANGER: Inhibition of human NCI-H510A cell growth in a cell viability assay.
row,SMILES,IC50 [µM]
1,CCCCCCCCCCCC1=C(O)C(=O)C=C(O)C1=O [EMBELIN],> 32

# Tested on: EFO-27;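 note: growth inhibition of EFO-27 cells, read out with a cell viability assay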
# Experiment: cells
# Type: functional, cell-based
# Conditions: Homo sapiens
# Description: SANGER: Inhibition of human EFO-27 cell growth in a cell viability assay.
row,SMILES,IC50 [µM]
1,CCCCCCCCCCCC1=C(O)C(=O)C=C(O)C1=O [EMBELIN],> 32

# Tested on: SW1463;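 note: growth inhibition of SW1463 cells, determined with a cell viability assay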
# Experiment: cells
# Type: functional, cell-based
# Conditions: Homo sapiens
# Description: SANGER: Inhibition of human SW1463 cell growth in a cell viability assay.
row,SMILES,IC50 [µM]
1,CCCCCCCCCCCC1=C(O)C(=O)C=C(O)C1=O [EMBELIN],> 32

# Tested on: NCI-H522;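 note: cell viability assay measuring growth inhibition of human NCI-H522 cells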
# Experiment: cells
# Type: functional, cell-based
# Conditions: Homo sapiens
# Description: SANGER: Inhibition of human NCI-H522 cell growth in a cell viability assay.
row,SMILES,IC50 [µM]
1,CCCCCCCCCCCC1=C(O)C(=O)C=C(O)C1=O [EMBELIN],17.7

# Tested on: HCT-15;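 note: cell viability readout, IC50 reflecting suppression of HCT-15 cell growth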
# Experiment: cells
# Type: functional, cell-based
# Conditions: Homo sapiens
# Description: SANGER: Inhibition of human HCT-15 cell growth in a cell viability assay.
row,SMILES,IC50 [µM]
1,CCCCCCCCCCCC1=C(O)C(=O)C=C(O)C1=O [EMBELIN],9.25

# Tested on: CAPAN-1;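 note: growth suppression of CAPAN-1 cells, read out by a cell viability assay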
# Experiment: cells
# Type: functional, cell-based
# Conditions: Homo sapiens
# Description: SANGER: Inhibition of human CAPAN-1 cell growth in a cell viability assay.
row,SMILES,IC50 [µM]
1,CCCCCCCCCCCC1=C(O)C(=O)C=C(O)C1=O [EMBELIN],9.01

# Tested on: HLE;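 note: growth inhibition of human HLE cells, read out by a cell viability assay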
# Experiment: cells
# Type: functional, cell-based
# Conditions: Homo sapiens
# Description: SANGER: Inhibition of human HLE cell growth in a cell viability assay.
row,SMILES,IC50 [µM]
1,CCCCCCCCCCCC1=C(O)C(=O)C=C(O)C1=O [EMBELIN],5.93

# Tested on: HGC-27;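 note: growth inhibition of human HGC-27 cells, read out in a cell viability assay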
# Experiment: cells
# Type: functional, cell-based
# Conditions: Homo sapiens
# Description: SANGER: Inhibition of human HGC-27 cell growth in a cell viability assay.
row,SMILES,IC50 [µM]
1,CCCCCCCCCCCC1=C(O)C(=O)C=C(O)C1=O [EMBELIN],7.95

# Tested on: NCI-H1703;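 note: growth inhibition of NCI-H1703 cells, read out via a cell viability assay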
# Experiment: cells
# Type: functional, cell-based
# Conditions: Homo sapiens
# Description: SANGER: Inhibition of human NCI-H1703 cell growth in a cell viability assay.
row,SMILES,IC50 [µM]
1,CCCCCCCCCCCC1=C(O)C(=O)C=C(O)C1=O [EMBELIN],19.1

# Tested on: SIMA;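 note: growth inhibition of SIMA cells, measured with a cell viability readout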
# Experiment: cells
# Type: functional, cell-based, Homo sapiens
# Conditions: Homo sapiens, SIMA
# Description: SANGER: Inhibition of human SIMA cell growth in a cell viability assay.
row,SMILES,IC50 [µM]
1,CCCCCCCCCCCC1=C(O)C(=O)C=C(O)C1=O [EMBELIN],6.37

# Tested on: MDA-MB-134-VI
# Experiment: cells
# Type: functional, cell-based, Homo sapiens
# Conditions: Homo sapiens, MDA-MB-134-VI
# Description: SANGER: Inhibition of human MDA-MB-134-VI cell growth in a cell viability assay.
row,SMILES,IC50 [µM]
1,CCCCCCCCCCCC1=C(O)C(=O)C=C(O)C1=O [EMBELIN],> 32

# Tested on: RD
# Experiment: cells
# Type: functional, cell-based
# Conditions: Homo sapiens
# Description: SANGER: Inhibition of human RD cell growth in a cell viability assay.
row,SMILES,IC50 [µM]
1,CCCCCCCCCCCC1=C(O)C(=O)C=C(O)C1=O [EMBELIN],15.3

# Tested on: Calu-3;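 note: growth inhibition of human Calu-3 cells, determined with a cell viability assay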
# Experiment: cells
# Type: functional, cell-based
# Conditions: Homo sapiens
# Description: SANGER: Inhibition of human Calu-3 cell growth in a cell viability assay.
row,SMILES,IC50 [µM]
1,CCCCCCCCCCCC1=C(O)C(=O)C=C(O)C1=O [EMBELIN],8.45

# Tested on: Raji;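 note: cell viability assay measuring inhibition of Raji cell growth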
# Experiment: cells
# Type: functional, cell-based, Homo sapiens
# Conditions: Homo sapiens, Raji
# Description: SANGER: Inhibition of human Raji cell growth in a cell viability assay.
row,SMILES,IC50 [µM]
1,CCCCCCCCCCCC1=C(O)C(=O)C=C(O)C1=O [EMBELIN],10.5

# Tested on: HN
# Experiment: cells
# Type: functional, cell-based
# Conditions: Homo sapiens
# Description: SANGER: Inhibition of human HN cell growth in a cell viability assay.
row,SMILES,IC50 [µM]
1,CCCCCCCCCCCC1=C(O)C(=O)C=C(O)C1=O [EMBELIN],24.8

# Tested on: SW780;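 note: growth inhibition of the cells, read out with a cell viability assay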
# Experiment: cells
# Type: functional, cell-based
# Conditions: Homo sapiens
# Description: SANGER: Inhibition of human SW780 cell growth in a cell viability assay.
row,SMILES,IC50 [µM]
1,CCCCCCCCCCCC1=C(O)C(=O)C=C(O)C1=O [EMBELIN],> 32

# Tested on: MC-IXC;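 note: growth inhibition of MC-IXC cells, read out with a cell viability assay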
# Experiment: cells
# Type: functional, cell-based
# Conditions: Homo sapiens
# Description: SANGER: Inhibition of human MC-IXC cell growth in a cell viability assay.
row,SMILES,IC50 [µM]
1,CCCCCCCCCCCC1=C(O)C(=O)C=C(O)C1=O [EMBELIN],5.39

# Tested on: C3A;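 note: growth inhibition of C3A human cells, quantified with a cell viability readout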
# Experiment: cells
# Type: functional, cell-based
# Conditions: Homo sapiens
# Description: SANGER: Inhibition of human C3A cell growth in a cell viability assay.
row,SMILES,IC50 [µM]
1,CCCCCCCCCCCC1=C(O)C(=O)C=C(O)C1=O [EMBELIN],15.4

# Tested on: SW1990
# Experiment: cells
# Type: functional, cell-based
# Conditions: Homo sapiens
# Description: SANGER: Inhibition of human SW1990 cell growth in a cell viability assay.
row,SMILES,IC50 [µM]
1,CCCCCCCCCCCC1=C(O)C(=O)C=C(O)C1=O [EMBELIN],6.49

# Tested on: HuCCT-1;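 note: growth inhibition of HuCCT-1 cells, read out by a cell viability assay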
# Experiment: cells
# Type: functional, cell-based, HuCCT1
# Conditions: Homo sapiens
# Description: SANGER: Inhibition of human HuCCT1 cell growth in a cell viability assay.
row,SMILES,IC50 [µM]
1,CCCCCCCCCCCC1=C(O)C(=O)C=C(O)C1=O [EMBELIN],9.92

# Tested on: MKN-45;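 note: growth inhibition of human MKN-45 cells, measured with a cell viability assay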
# Experiment: cells
# Type: functional, cell-based
# Conditions: Homo sapiens
# Description: SANGER: Inhibition of human MKN45 cell growth in a cell viability assay.
row,SMILES,IC50 [µM]
1,CCCCCCCCCCCC1=C(O)C(=O)C=C(O)C1=O [EMBELIN],7.98

# Tested on: NCI-H524;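 note: growth inhibition of human NCI-H524 cells, read out through a cell viability assay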
# Experiment: cells
# Type: functional, cell-based, Homo sapiens
# Conditions: Homo sapiens, NCI-H524
# Description: SANGER: Inhibition of human NCI-H524 cell growth in a cell viability assay.
row,SMILES,IC50 [µM]
1,CCCCCCCCCCCC1=C(O)C(=O)C=C(O)C1=O [EMBELIN],> 32

# Tested on: A204;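 note: growth inhibition of human A204 cells, read out with a cell viability assay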
# Experiment: cells
# Type: functional, cell-based
# Conditions: Homo sapiens
# Description: SANGER: Inhibition of human A204 cell growth in a cell viability assay.
row,SMILES,IC50 [µM]
1,CCCCCCCCCCCC1=C(O)C(=O)C=C(O)C1=O [EMBELIN],17.4

# Tested on: SW1710;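 note: growth inhibition of SW1710 cells, determined with a cell viability assay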
# Experiment: cells
# Type: functional, cell-based
# Conditions: Homo sapiens
# Description: SANGER: Inhibition of human SW1710 cell growth in a cell viability assay.
row,SMILES,IC50 [µM]
1,CCCCCCCCCCCC1=C(O)C(=O)C=C(O)C1=O [EMBELIN],14.1

# Tested on: SW626;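 note: growth inhibition of SW626 cells, measured with a cell viability assay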
# Experiment: cells
# Type: functional, cell-based
# Conditions: Homo sapiens
# Description: SANGER: Inhibition of human SW626 cell growth in a cell viability assay.
row,SMILES,IC50 [µM]
1,CCCCCCCCCCCC1=C(O)C(=O)C=C(O)C1=O [EMBELIN],9.35

# Tested on: COR-L279
# Experiment: SANGER: Inhibition of human COR-L279 cell growth in a cell viability assay.
# Type: functional, cell-based
# Conditions: Homo sapiens, COR-L279
row,SMILES,IC50 [µM]
1,CCCCCCCCCCCC1=C(O)C(=O)C=C(O)C1=O [EMBELIN],> 32

# Tested on: HCC1395;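 note: growth inhibition of HCC1395 cells, read out by a cell viability assay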
# Experiment: cells
# Type: functional, cell-based
# Conditions: Homo sapiens
# Description: SANGER: Inhibition of human HCC1395 cell growth in a cell viability assay.
row,SMILES,IC50 [µM]
1,CCCCCCCCCCCC1=C(O)C(=O)C=C(O)C1=O [EMBELIN],> 32

# Tested on: CAL-39;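 note: cell viability assay measuring growth inhibition of CAL-39 cells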
# Experiment: cells
# Type: functional, cell-based
# Conditions: Homo sapiens
# Description: SANGER: Inhibition of human CAL-39 cell growth in a cell viability assay.
row,SMILES,IC50 [µM]
1,CCCCCCCCCCCC1=C(O)C(=O)C=C(O)C1=O [EMBELIN],4.48

# Tested on: CHP-126
# Experiment: cells
# Type: functional, cell-based, Homo sapiens
# Conditions: Homo sapiens, CHP-126
# Description: SANGER: Inhibition of human CHP-126 cell growth in a cell viability assay.
row,SMILES,IC50 [µM]
1,CCCCCCCCCCCC1=C(O)C(=O)C=C(O)C1=O [EMBELIN],> 32

# Tested on: U-251;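 note: growth inhibition of human U-251 cells, read out through a cell viability assay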
# Experiment: cells
# Type: functional, cell-based
# Conditions: Homo sapiens
# Description: SANGER: Inhibition of human U251 cell growth in a cell viability assay.
row,SMILES,IC50 [µM]
1,CCCCCCCCCCCC1=C(O)C(=O)C=C(O)C1=O [EMBELIN],9.69

# Tested on: NCI-H2141;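 note: growth inhibition of human NCI-H2141 cells, read out with a cell viability assay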
# Experiment: cells
# Type: functional, cell-based, Homo sapiens
# Conditions: Homo sapiens, NCI-H2141
# Description: SANGER: Inhibition of human NCI-H2141 cell growth in a cell viability assay.
row,SMILES,IC50 [µM]
1,CCCCCCCCCCCC1=C(O)C(=O)C=C(O)C1=O [EMBELIN],26.8

# Tested on: HCC1954;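 note: growth inhibition of human HCC1954 cells, read out with a cell viability assay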
# Experiment: cells
# Type: functional, cell-based
# Conditions: Homo sapiens
# Description: SANGER: Inhibition of human HCC1954 cell growth in a cell viability assay.
row,SMILES,IC50 [µM]
1,CCCCCCCCCCCC1=C(O)C(=O)C=C(O)C1=O [EMBELIN],11.3

# Tested on: MDA-MB-157
# Experiment: cells
# Type: functional, cell-based
# Conditions: Homo sapiens
# Description: SANGER: Inhibition of human MDA-MB-157 cell growth in a cell viability assay.
row,SMILES,IC50 [µM]
1,CCCCCCCCCCCC1=C(O)C(=O)C=C(O)C1=O [EMBELIN],6.88

# Tested on: GAMG;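 note: cell growth inhibition measured by a viability assay in the GAMG human cell line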
# Experiment: cells
# Type: functional, cell-based
# Conditions: Homo sapiens
# Description: SANGER: Inhibition of human GAMG cell growth in a cell viability assay.
row,SMILES,IC50 [µM]
1,CCCCCCCCCCCC1=C(O)C(=O)C=C(O)C1=O [EMBELIN],9.09

# Tested on: CAMA-1;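 note: growth inhibition of CAMA-1 cells, read out with a cell viability assay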
# Experiment: cells
# Type: functional, cell-based
# Conditions: Homo sapiens
# Description: SANGER: Inhibition of human CAMA-1 cell growth in a cell viability assay.
row,SMILES,IC50 [µM]
1,CCCCCCCCCCCC1=C(O)C(=O)C=C(O)C1=O [EMBELIN],7.09

# Tested on: LCLC-103H cell line
# Experiment: cells
# Type: functional, cell-based
# Conditions: Homo sapiens
# Description: SANGER: Inhibition of human LCLC-103H cell growth in a cell viability assay.
row,SMILES,IC50 [µM]
1,CCCCCCCCCCCC1=C(O)C(=O)C=C(O)C1=O [EMBELIN],9.06

# Tested on: FaDu;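 note: cell viability readout of growth inhibition in FaDu cells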
# Experiment: cells
# Type: functional, cell-based
# Conditions: Homo sapiens
# Description: SANGER: Inhibition of human FADU cell growth in a cell viability assay.
row,SMILES,IC50 [µM]
1,CCCCCCCCCCCC1=C(O)C(=O)C=C(O)C1=O [EMBELIN],15.8

# Tested on: SCLC-21H;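 note: growth inhibition of cultured human SCLC-21H cells, read out with a cell viability assay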
# Experiment: cells
# Type: functional, cell-based, Homo sapiens
# Conditions: Homo sapiens, SCLC-21H
# Description: SANGER: Inhibition of human SCLC-21H cell growth in a cell viability assay.
row,SMILES,IC50 [µM]
1,CCCCCCCCCCCC1=C(O)C(=O)C=C(O)C1=O [EMBELIN],> 32

# Tested on: NCI-H1882;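 note: growth inhibition of the cell line, determined with a viability assay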
# Experiment: cells
# Type: functional, cell-based, Homo sapiens
# Conditions: Homo sapiens, NCI-H1882
# Description: SANGER: Inhibition of human NCI-H1882 cell growth in a cell viability assay.
row,SMILES,IC50 [µM]
1,CCCCCCCCCCCC1=C(O)C(=O)C=C(O)C1=O [EMBELIN],> 32

# Tested on: SNU-449
# Experiment: cells
# Type: functional, cell-based
# Conditions: Homo sapiens
# Description: SANGER: Inhibition of human SNU-449 cell growth in a cell viability assay.
row,SMILES,IC50 [µM]
1,CCCCCCCCCCCC1=C(O)C(=O)C=C(O)C1=O [EMBELIN],16.5

# Tested on: A-427;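 note: growth inhibition of human A-427 cells, read out by a cell viability assay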
# Experiment: cells
# Type: functional, cell-based
# Conditions: Homo sapiens
# Description: SANGER: Inhibition of human A427 cell growth in a cell viability assay.
row,SMILES,IC50 [µM]
1,CCCCCCCCCCCC1=C(O)C(=O)C=C(O)C1=O [EMBELIN],> 32

# Tested on: NCI-H322M;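 note: cell viability assay measuring inhibition of growth of human NCI-H322M cells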
# Experiment: cells
# Type: functional, cell-based, Homo sapiens
# Conditions: Homo sapiens, NCI-H322M
# Description: SANGER: Inhibition of human NCI-H322M cell growth in a cell viability assay.
row,SMILES,IC50 [µM]
1,CCCCCCCCCCCC1=C(O)C(=O)C=C(O)C1=O [EMBELIN],> 32

# Tested on: NCI-H2405;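 note: growth inhibition of the human cell line, read out with a cell viability assay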
# Experiment: cells
# Type: functional, cell-based
# Conditions: Homo sapiens
# Description: SANGER: Inhibition of human NCI-H2405 cell growth in a cell viability assay.
row,SMILES,IC50 [µM]
1,CCCCCCCCCCCC1=C(O)C(=O)C=C(O)C1=O [EMBELIN],8

# Tested on: NCI-H1437;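 note: growth inhibition of human NCI-H1437 cells, read out by a cell viability assay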
# Experiment: cells
# Type: functional, cell-based
# Conditions: Homo sapiens
# Description: SANGER: Inhibition of human NCI-H1437 cell growth in a cell viability assay.
row,SMILES,IC50 [µM]
1,CCCCCCCCCCCC1=C(O)C(=O)C=C(O)C1=O [EMBELIN],6.27

# Tested on: RMG-I;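 note: growth inhibition of human RMG-I cells, read out with a cell viability assay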
# Experiment: cells
# Type: functional, cell-based
# Conditions: Homo sapiens
# Description: SANGER: Inhibition of human RMG-I cell growth in a cell viability assay.
row,SMILES,IC50 [µM]
1,CCCCCCCCCCCC1=C(O)C(=O)C=C(O)C1=O [EMBELIN],9.24

# Tested on: Daudi;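 note: growth inhibition of Daudi cells, read out by a viability assay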
# Experiment: cells
# Type: functional, cell-based, Homo sapiens
# Conditions: Homo sapiens, Daudi
# Description: SANGER: Inhibition of human Daudi cell growth in a cell viability assay.
row,SMILES,IC50 [µM]
1,CCCCCCCCCCCC1=C(O)C(=O)C=C(O)C1=O [EMBELIN],5.75

# Tested on: HuP-T3;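 note: HuP-T3 cell growth inhibition, read out with a cell viability assay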
# Experiment: cells
# Type: functional, cell-based
# Conditions: Homo sapiens
# Description: SANGER: Inhibition of human HuP-T3 cell growth in a cell viability assay.
row,SMILES,IC50 [µM]
1,CCCCCCCCCCCC1=C(O)C(=O)C=C(O)C1=O [EMBELIN],> 32

# Tested on: KYSE-270;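 note: cell growth inhibition measured with a viability assay in the human KYSE-270 line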
# Experiment: cells
# Type: functional, cell-based
# Conditions: Homo sapiens
# Description: SANGER: Inhibition of human KYSE-270 cell growth in a cell viability assay.
row,SMILES,IC50 [µM]
1,CCCCCCCCCCCC1=C(O)C(=O)C=C(O)C1=O [EMBELIN],8.86
